Drawing on article PMC4414684 (Chemico-biological interactions, 2014), this text covers inhibition for one compound.

This experiment deals with T1, IKKβ (Homo sapiens, UniProt O14920).
T1 sequence (O14920 1-756): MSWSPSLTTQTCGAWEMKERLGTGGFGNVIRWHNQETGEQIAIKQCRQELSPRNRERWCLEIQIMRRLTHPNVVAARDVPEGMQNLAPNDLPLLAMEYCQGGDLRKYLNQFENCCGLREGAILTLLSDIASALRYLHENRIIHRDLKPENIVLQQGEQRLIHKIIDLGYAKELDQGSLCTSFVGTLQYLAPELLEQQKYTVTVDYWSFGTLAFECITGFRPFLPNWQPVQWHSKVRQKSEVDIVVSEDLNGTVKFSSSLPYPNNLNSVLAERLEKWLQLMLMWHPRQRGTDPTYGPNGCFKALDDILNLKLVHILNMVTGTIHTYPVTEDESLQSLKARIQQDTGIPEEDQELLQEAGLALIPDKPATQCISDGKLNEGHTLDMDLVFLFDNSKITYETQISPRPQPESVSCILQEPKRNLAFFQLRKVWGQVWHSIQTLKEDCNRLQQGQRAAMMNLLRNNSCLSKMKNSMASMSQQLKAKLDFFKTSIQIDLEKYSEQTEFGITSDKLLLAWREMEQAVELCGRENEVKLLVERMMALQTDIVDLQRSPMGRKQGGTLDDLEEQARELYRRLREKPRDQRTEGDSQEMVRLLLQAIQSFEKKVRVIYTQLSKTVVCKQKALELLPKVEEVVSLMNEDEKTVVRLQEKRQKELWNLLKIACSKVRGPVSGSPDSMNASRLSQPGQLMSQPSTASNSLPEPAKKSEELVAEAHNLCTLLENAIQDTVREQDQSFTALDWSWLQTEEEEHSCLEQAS
Format: biochemical. The settings on record: read-out: % inhibition at 100 μM.

The structures appear in SMILES notation.

As for `CCCCCC(=O)/C=C/C=C\C/C=C\C/C=C\CCCC(=O)O` [15-oxoETE], the inhibition at 100 µM is above 50%.
